From patent US20250170248A1, “SMARCA DEGRADERS AND USES THEREOF” (Kymera Therapeutics, Inc., priority 2021, published 2025) come the findings set out here.

Type in all cases: cell-based
Experiment [1] addresses T1, SMARCA2 (Homo sapiens, UniProt P51531). Briefly: MSD SMARCA2 degradation in A549 cell line. As to conditions: for Dmax: A549, A549 cells; for Dmax / DC50: 24 h; for DC50: read-out: SMARCA2 MSD A549 degradation 24 h: Average external-Abs DC50. The essentials:
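A549 cells treated 24 h with compound, 3-fold series from 1000 nM. Lysates captured on MSD plates and SMARCA2 quantified with anti-SMARCA2 and SULFO-TAG secondary antibodies (electrochemiluminescence). DC50 and Dmax (% degradation at 24 h) reported as letter bins.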

Experiment [2] concerns the target T1, SMARCA2. Put plainly: SMARCA2 Western blot degradation in MV4-11 cells. Details: SMARCA2/SMARCA4 protein degradation selectivity in MV4-11 cells; endogenous in cells; host or cells: MV4-11. To be noted: for Dmax: MV4-11, MV4-11 cells, read-out: SMARCA2 MSD MV411 degradation 24 h: average Dmax %; for DC50: read-out: SMARCA2 MSD MV411 degradation 24 h: Mean external-Abs DC50; for Selectivity in MV411: SMARCA2/4 selectivity.

The target of the next experiment is T2, SMARCA4 (Homo sapiens, UniProt P51532).
T2 construct: SMARCA2/SMARCA4 protein degradation selectivity in MV4-11 cells; endogenous in cells; host or cells: MV4-11
T2 sequence (P51532 whole entry): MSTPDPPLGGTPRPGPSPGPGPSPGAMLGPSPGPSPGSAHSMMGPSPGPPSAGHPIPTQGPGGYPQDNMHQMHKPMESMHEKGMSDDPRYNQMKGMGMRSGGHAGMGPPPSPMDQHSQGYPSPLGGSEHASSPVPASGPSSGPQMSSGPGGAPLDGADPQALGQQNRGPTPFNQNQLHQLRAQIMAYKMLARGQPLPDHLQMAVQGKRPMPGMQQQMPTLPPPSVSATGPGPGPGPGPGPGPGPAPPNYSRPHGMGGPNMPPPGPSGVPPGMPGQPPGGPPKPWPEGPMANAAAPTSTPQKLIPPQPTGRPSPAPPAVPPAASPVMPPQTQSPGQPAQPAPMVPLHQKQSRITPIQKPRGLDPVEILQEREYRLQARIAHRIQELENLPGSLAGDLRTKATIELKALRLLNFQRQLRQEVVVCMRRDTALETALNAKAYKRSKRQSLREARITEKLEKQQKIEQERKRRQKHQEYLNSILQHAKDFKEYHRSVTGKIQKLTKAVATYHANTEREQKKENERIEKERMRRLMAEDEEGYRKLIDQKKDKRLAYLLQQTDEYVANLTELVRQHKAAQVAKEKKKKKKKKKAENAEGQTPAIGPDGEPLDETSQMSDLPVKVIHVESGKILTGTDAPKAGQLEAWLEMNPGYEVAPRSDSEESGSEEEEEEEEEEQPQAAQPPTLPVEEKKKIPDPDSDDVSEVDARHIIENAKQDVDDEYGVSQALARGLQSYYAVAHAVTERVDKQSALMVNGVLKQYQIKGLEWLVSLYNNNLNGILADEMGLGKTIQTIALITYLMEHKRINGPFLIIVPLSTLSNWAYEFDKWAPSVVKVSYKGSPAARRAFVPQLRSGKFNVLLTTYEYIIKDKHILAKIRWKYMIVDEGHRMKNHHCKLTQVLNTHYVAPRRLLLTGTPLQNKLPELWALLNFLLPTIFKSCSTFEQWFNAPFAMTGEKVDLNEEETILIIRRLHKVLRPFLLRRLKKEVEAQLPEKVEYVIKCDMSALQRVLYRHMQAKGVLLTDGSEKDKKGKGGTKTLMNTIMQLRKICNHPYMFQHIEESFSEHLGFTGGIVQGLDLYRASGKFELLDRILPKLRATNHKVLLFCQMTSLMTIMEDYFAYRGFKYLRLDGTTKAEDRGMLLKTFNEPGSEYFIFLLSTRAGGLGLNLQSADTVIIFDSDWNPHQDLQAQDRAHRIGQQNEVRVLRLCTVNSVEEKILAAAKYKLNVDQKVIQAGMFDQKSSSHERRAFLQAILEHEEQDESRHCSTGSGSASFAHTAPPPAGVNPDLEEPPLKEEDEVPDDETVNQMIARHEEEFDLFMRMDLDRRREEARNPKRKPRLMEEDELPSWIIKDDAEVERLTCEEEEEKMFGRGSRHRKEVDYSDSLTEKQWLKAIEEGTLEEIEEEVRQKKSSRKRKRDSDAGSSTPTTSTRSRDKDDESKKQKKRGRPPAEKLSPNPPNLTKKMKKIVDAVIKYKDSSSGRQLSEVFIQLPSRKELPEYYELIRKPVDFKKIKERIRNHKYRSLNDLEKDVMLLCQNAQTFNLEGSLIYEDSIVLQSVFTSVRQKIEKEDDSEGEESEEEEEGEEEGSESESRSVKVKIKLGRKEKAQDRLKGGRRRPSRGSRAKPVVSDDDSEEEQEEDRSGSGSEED
Briefly: SMARCA4 Western blot degradation in MV4-11 cells. As to conditions: for Dmax: MV4-11, MV4-11 cells, read-out: SMARCA4 MSD MV411 degradation 24 h: average Dmax %; for Dmax / DC50: 24 h; for DC50: read-out: SMARCA4 MSD MV411 degradation 24 h: Mean external-Abs DC50. A digest of the protocol: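 24 h compound exposure, MV4-11; RIPA lysates → SDS-PAGE → NC membrane; anti-SMARCA2/BRM, anti-BRG1, β-actin loading control; LI-COR fluorescence read. DC50 and Dmax at 24 h reported as letter bins.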

T1 sequence (P51531 whole entry): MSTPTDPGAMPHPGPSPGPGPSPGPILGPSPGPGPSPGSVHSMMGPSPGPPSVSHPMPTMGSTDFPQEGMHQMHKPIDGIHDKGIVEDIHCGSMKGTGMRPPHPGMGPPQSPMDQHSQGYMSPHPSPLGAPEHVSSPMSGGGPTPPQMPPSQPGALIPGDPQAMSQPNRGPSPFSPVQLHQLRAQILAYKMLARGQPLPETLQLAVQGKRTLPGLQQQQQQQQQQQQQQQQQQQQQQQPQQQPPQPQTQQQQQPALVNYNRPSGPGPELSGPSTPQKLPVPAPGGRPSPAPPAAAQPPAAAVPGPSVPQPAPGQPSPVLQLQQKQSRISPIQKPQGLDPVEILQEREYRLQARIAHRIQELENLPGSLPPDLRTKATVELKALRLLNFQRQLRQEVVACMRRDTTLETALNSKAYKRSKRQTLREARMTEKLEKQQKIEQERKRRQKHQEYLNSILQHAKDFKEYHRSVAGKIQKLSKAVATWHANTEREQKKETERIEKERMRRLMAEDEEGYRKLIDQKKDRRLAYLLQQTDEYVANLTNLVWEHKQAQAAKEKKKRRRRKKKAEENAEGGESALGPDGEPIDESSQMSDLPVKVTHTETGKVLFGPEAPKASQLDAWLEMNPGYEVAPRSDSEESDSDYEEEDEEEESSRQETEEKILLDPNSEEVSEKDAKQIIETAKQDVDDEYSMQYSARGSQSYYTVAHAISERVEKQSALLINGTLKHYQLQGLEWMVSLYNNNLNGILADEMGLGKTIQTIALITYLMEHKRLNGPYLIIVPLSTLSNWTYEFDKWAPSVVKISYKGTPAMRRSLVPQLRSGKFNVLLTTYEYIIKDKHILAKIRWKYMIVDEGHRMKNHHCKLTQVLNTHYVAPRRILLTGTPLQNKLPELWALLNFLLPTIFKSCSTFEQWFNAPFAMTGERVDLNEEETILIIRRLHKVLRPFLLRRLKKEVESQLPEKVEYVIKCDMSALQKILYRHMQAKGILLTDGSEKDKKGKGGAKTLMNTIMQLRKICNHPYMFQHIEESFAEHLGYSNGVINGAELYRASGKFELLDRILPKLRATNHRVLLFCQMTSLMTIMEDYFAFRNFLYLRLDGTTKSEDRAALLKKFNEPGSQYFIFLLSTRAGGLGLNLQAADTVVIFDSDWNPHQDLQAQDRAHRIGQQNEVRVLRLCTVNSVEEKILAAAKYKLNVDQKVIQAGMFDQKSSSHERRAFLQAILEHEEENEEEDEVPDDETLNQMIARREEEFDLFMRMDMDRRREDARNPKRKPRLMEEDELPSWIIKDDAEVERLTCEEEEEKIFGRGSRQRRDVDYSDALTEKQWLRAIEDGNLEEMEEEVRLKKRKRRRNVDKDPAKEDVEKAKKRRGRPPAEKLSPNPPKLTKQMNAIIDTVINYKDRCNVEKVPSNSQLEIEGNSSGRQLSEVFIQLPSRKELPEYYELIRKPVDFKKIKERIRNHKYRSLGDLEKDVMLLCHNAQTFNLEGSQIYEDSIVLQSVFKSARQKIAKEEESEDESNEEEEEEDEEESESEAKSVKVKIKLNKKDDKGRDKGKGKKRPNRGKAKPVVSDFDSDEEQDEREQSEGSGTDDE

Turning to `C#Cc1ccc(CNC(=O)[C@@H]2C[C@@H](O)CN2C(=O)[C@@H](NC(=O)N2CCC(CN3CCC(N4CCc5[nH]c6nnc(-c7ccccc7O)cc6c5[C@H]4C)CC3)CC2)C(C)(C)C)cc1` [I-198], the results for the Dmax at SMARCA2 [1], on SMARCA2 [2] (24 h) and at SMARCA4 were 70 to 90%, 50 to 70% and under 50%, respectively. For the same molecule, the DC50 on SMARCA2 [1] (A549 cells) is over 100 nM; at SMARCA2 [2] (MV4-11 cells, 24 h) it was 10 to 100 nM; on SMARCA4 (MV4-11 cells), over 100 nM. Moreover, the “Selectivity in MV411” value on SMARCA2 [2] (MV4-11 cells) is on record as “C (C (10-100 fold))”.
For the molecule `Cn1nccc1-c1ccc(CNC(=O)[C@@H]2C[C@@H](O)CN2C(=O)[C@@H](NC(=O)[C@H]2CC[C@H](c3ccc(-c4cnc(N5CCN6c7cc(-c8ccccc8O)nnc7NC[C@H]6C5)nc4)cc3)CC2)C(C)(C)C)cc1` (single isomer, unassigned) [I-87], the Dmax at SMARCA2 [1] was over 90%; on SMARCA2 [2] (24 h), 70 to 90%; at SMARCA4 it was over 90%. In addition, the DC50 lay within 10 to 50 nM at SMARCA2 [1] (A549 cells); 10 to 100 nM at SMARCA2 [2] (MV4-11 cells, 24 h); 10 to 100 nM on SMARCA4 (MV4-11 cells). Also, the “Selectivity in MV411” value on SMARCA2 [2] (MV4-11 cells) is listed as “C (C (10-100 fold))”.
As to `C#Cc1ccc(CNC(=O)[C@@H]2C[C@@H](O)CN2C(=O)[C@@H](NC(=O)N2CC3(CC(N4CCC(c5cnc(N6CCc7[nH]c8nnc(-c9ccccc9O)cc8c7[C@H]6C)nc5)CC4)C3)C2)C(C)(C)CCN2CCOCC2)cc1` (single isomer, unassigned) [I-338], the maximal degradation (Dmax) on SMARCA2 [1], at SMARCA2 [2] (24 h) and at SMARCA4 was under 50% each time. The DC50 on SMARCA2 [1] (A549 cells) was over 100 nM; at SMARCA2 [2] (MV4-11 cells, 24 h) it was over 100 nM; on SMARCA4 (MV4-11 cells), over 100 nM. The “Selectivity in MV411” value on SMARCA2 [2] (MV4-11 cells) was “C (C (10-100 fold))”.
For `C#CCOc1cc(C(C(=O)N2C[C@H](O)C[C@H]2C(=O)NCc2ccc(-c3scnc3C)cc2O[C@H]2CC[C@@H](N3CCC(c4cnc(N5CCc6[nH]c7nnc(-c8ccccc8O)cc7c6[C@H]5C)nc4)CC3)CC2)C(C)C)on1` (single isomer, unassigned) [I-37], the Dmax at SMARCA2 [1], at SMARCA2 [2] (24 h) and at SMARCA4 was over 90% each time. In addition, the DC50 at SMARCA2 [1] (A549 cells) is under 10 nM; at SMARCA2 [2] (MV4-11 cells, 24 h) it was under 1 nM; at SMARCA4 (MV4-11 cells), under 1 nM. In addition, the “Selectivity in MV411” value at SMARCA2 [2] (MV4-11 cells) was “D (D (<10 fold))”.
In the case of `C#Cc1ccc(CNC(=O)[C@@H]2C[C@@H](O)CN2C(=O)[C@@H](NC(=O)[C@H]2CCC3(CC2)C[C@H](N2CCN(c4cnc(N5CCN6c7cc(-c8ccccc8O)nnc7NC[C@H]6C5)nc4)CC2)C3)C(C)(C)C)cc1` (single isomer, unassigned) [I-122], the Dmax was over 90% on SMARCA2 [1], 70 to 90% at SMARCA2 [2] (24 h) and 50 to 70% on SMARCA4. The DC50 on SMARCA2 [1] (A549 cells) was 10 to 50 nM; on SMARCA2 [2] (MV4-11 cells, 24 h) it was 1 to 10 nM; on SMARCA4 (MV4-11 cells) it was 10 to 100 nM. For the same molecule, at SMARCA2 [2] (MV4-11 cells), the “Selectivity in MV411” value is given as “C (C (10-100 fold))”.
Consider `C#Cc1ccc(CNC(=O)[C@@H]2C[C@@H](O)CN2C(=O)[C@@H](NC(=O)[C@H]2CCC3(CC2)C[C@H](N2CCC(N(C)CCN4CCN5c6cc(-c7ccccc7O)nnc6NC[C@H]5C4)CC2)C3)C(C)(C)C)cc1` (single isomer, unassigned) [I-247], for which, on SMARCA2 [1] (A549 cells), the “SMARCA2 MSD A549 degradation 24 h: Average Dmax %” value was “A (A (>90% degradation))” and the DC50 lay within 50 to 100 nM. In addition, at SMARCA2 [2] (MV4-11 cells, 24 h), the “SMARCA2 MSD MV411 degradation 24 h: average Dmax %” value was “B (B (>70-90% degradation))” and the DC50 is 1 to 10 nM. At SMARCA2 [2] (MV4-11 cells), the “Selectivity in MV411” value was “C (C (10-100 fold))”. Moreover, on SMARCA4 (MV4-11 cells), the “SMARCA4 MSD MV411 degradation 24 h: average Dmax %” value was “C (C (50-70% degradation))” and the DC50 was over 100 nM.
Take `Cc1ncsc1-c1ccc(CNC(=O)[C@@H]2C[C@@H](O)CN2C(=O)C(c2cc(OCCCCN3CCC(c4cnc(N5CCc6[nH]c7nnc(-c8ccccc8O)cc7c6[C@H]5C)nc4)CC3)no2)C(C)C)cc1` (stereo partly shown) [I-35]: the figures for the Dmax on SMARCA2 [1], at SMARCA2 [2] (24 h) and at SMARCA4 were 70 to 90%, over 90% and 70 to 90%, respectively. The DC50 on SMARCA2 [1] (A549 cells) was in the range of 10 to 50 nM; at SMARCA2 [2] (MV4-11 cells, 24 h), 1 to 10 nM; at SMARCA4 (MV4-11 cells) it was 1 to 10 nM. The “Selectivity in MV411” value at SMARCA2 [2] (MV4-11 cells) is “D (D (<10 fold))”.
As to `C#Cc1cnc(CNC(=O)[C@@H]2C[C@@H](O)CN2C(=O)C(c2cc(OCCN3CCC(N4CCC(N5CCC(CN6CCN7c8cc(-c9ccccc9O)nnc8NC[C@H]7C6)CC5)CC4)CC3)no2)C(C)C)c(OC)c1` (stereo partly shown) [I-303], the figures for the Dmax at SMARCA2 [1], on SMARCA2 [2] (24 h) and at SMARCA4 were over 90%, 70 to 90% and under 50%, respectively. Further, the DC50 is over 100 nM on SMARCA2 [1] (A549 cells); 10 to 100 nM at SMARCA2 [2] (MV4-11 cells, 24 h); over 100 nM on SMARCA4 (MV4-11 cells). The “Selectivity in MV411” value on SMARCA2 [2] (MV4-11 cells) is reported as “B (B (>100-500 fold))”.
As to `C#Cc1ccc(CNC(=O)[C@@H]2C[C@@H](O)CN2C(=O)[C@@H](NC(=O)N2CCN(CC3CCN([C@H]4CC[C@@H](N5CCc6[nH]c7nnc(-c8ccccc8O)cc7c6[C@H]5C)CC4)CC3)CC2)C(C)(C)C)cc1` [I-203], the Dmax on SMARCA2 [1] is 70 to 90%; on SMARCA2 [2] (24 h), under 50%; on SMARCA4 it was under 50%. In addition, the DC50 on SMARCA2 [1] (A549 cells) was over 100 nM; on SMARCA2 [2] (MV4-11 cells, 24 h) it was over 100 nM; on SMARCA4 (MV4-11 cells) it was over 100 nM. In addition, the “Selectivity in MV411” value on SMARCA2 [2] (MV4-11 cells) is on record as “C (C (10-100 fold))”.
For `C#Cc1ccc([C@H](C)NC(=O)[C@@H]2C[C@@H](O)CN2C(=O)[C@@H](NC(=O)N2CC3(CC(N4CCC(c5cnc(N6CCc7[nH]c8nnc(-c9ccccc9O)cc8c7[C@H]6C)nc5)CC4)C3)C2)C(C)(C)C)c(O)c1` [I-282], the Dmax on SMARCA2 [1] was over 90%; on SMARCA2 [2] (24 h), 70 to 90%; on SMARCA4 it was 70 to 90%. For the same molecule, the DC50 was under 10 nM at SMARCA2 [1] (A549 cells); 1 to 10 nM on SMARCA2 [2] (MV4-11 cells, 24 h); over 100 nM at SMARCA4 (MV4-11 cells). Further, the “Selectivity in MV411” value on SMARCA2 [2] (MV4-11 cells) is recorded as “C (C (10-100 fold))”.
Regarding `C#Cc1ccc(CNC(=O)[C@@H]2C[C@@H](O)CN2C(=O)[C@@H](NC(=O)N2CC3(CC(N4CCC(c5cnc(N6CCc7[nH]c8nnc(-c9ccccc9O)cc8c7[C@H]6CO)nc5)CC4)C3)C2)C(C)(C)C)cc1` [I-146], the values for the Dmax on SMARCA2 [1], at SMARCA2 [2] (24 h) and at SMARCA4 were over 90%, over 90% and 70 to 90%, respectively. Also, the DC50 on SMARCA2 [1] (A549 cells) was under 10 nM; on SMARCA2 [2] (MV4-11 cells, 24 h), 1 to 10 nM; on SMARCA4 (MV4-11 cells), 10 to 100 nM. The “Selectivity in MV411” value on SMARCA2 [2] (MV4-11 cells) is recorded as “C (C (10-100 fold))”.
Take `C#Cc1ccc(CNC(=O)[C@@H]2C[C@@H](O)CN2C(=O)[C@@H](NC(=O)N2CC3(CC(N4CCC(c5cnc(N6CCc7[nH]c8nnc(-c9ccccc9O)cc8c7[C@H]6C)nc5)CC4)C3)C2)C(C)(C)CCO)c(Cl)c1` (single isomer, unassigned) [I-317]: the values for the Dmax at SMARCA2 [1], on SMARCA2 [2] (24 h) and on SMARCA4 were over 90%, 70 to 90% and 70 to 90%, respectively. In addition, the DC50 is 10 to 50 nM at SMARCA2 [1] (A549 cells); 1 to 10 nM on SMARCA2 [2] (MV4-11 cells, 24 h); over 100 nM on SMARCA4 (MV4-11 cells). Moreover, the “Selectivity in MV411” value at SMARCA2 [2] (MV4-11 cells) is recorded as “C (C (10-100 fold))”.
For `Cc1ncsc1-c1ccc(CNC(=O)[C@@H]2C[C@@H](O)CN2C(=O)[C@@H](NC(=O)N2CC3(CC(N4CCC(c5cnc(N6CCN7c8cc(-c9ccccc9O)nnc8NC[C@H]7C6)nc5)CC4)C3)C2)C(C)(C)C)cc1` [I-64], the Dmax is over 90% at SMARCA2 [1], over 90% on SMARCA2 [2] (24 h) and 50 to 70% at SMARCA4. The 50% degradation concentration (DC50) on SMARCA2 [1] (A549 cells) lay within 10 to 50 nM; on SMARCA2 [2] (MV4-11 cells, 24 h), 1 to 10 nM; at SMARCA4 (MV4-11 cells), 10 to 100 nM. In addition, the “Selectivity in MV411” value on SMARCA2 [2] (MV4-11 cells) is recorded as “C (C (10-100 fold))”.
